# Laboratory results: patent US20080299590A1, “SHC protein-related methods and compositions” (Roger Williams Hospital, priority 2005, published 2008)
# Tested on: breast cancer patients
# Experiment: Shc Test TMA study: protection by adjuvant tamoxifen or chemotherapy by Shc risk group (multivariate survival models)
# Format: in vivo, human
# From the text: Materials and Methods: Patient samples included primary invasive tumor specimens from 4,326 British Columbian women in Tumor Micro-Array (TMA) format (no adjuvant therapy=1860; tamoxifen=1366; chemotherapy (AC, CMF, FAC, CEF)=744; relapsed=1752; died of disease=1334, average follow-up 13 yrs). Two additional sources were 65 primary tumor specimens from tamoxifen-only-treated patients (10 recurrences, 6.4 yrs average follow-up) from Roger Williams Medical Center (RWMC), and 32 (14 recurrences) from a published study (Massachusetts General Hospital (MGH)) (Ma et al., Cancer Cell, 5:1-10 (2004)). Immunohistochemistry (IHC) staining of the Shc proteins was scored on a continuous 0-5 scale by two pathologists, blinded to patient clinical data.
# Analysis of relapse-free survival (RFS) and disease specific survival (DSS) used multivariate models under assumptions of both log-normality as well as proportionality of hazard rate.
smiles,measurement,setting,value
CC/C(=C(\c1ccccc1)c1ccc(OCCN(C)C)cc1)c1ccccc1 [tamoxifen],hazard ratio (HR) of tamoxifen therapy,"12% of patients classified as high risk by the Shc Test, node positive patients",0.26
same,benefit from tamoxifen,63% patients in the low risk group by the Shc Test,little benefit
